Results as given in US4528293A, “Heteroaromatic derivatives of iminomethyl piperidines and use to inhibit gastric acid secretion” (McNeilab, Inc., priority 1983, dated 1985).

The compounds below were run on gastric acid secretion (assay: Acute gastric fistula rat test: inhibition of gastric acid secretion (Total Acid Output)). Conditions: ip, compound administered intraperitoneally (footnote *), read-out: ED50 Acute Gastric Fistula (dose required to produce an average of 50% inhibition in Total Acid Output versus controls).
Format: in vivo, Female Sprague-Dawley rats
Protocol: The compounds of the invention of formula (I) are useful for the inhibition of gastric acid secretion as measured by the following test. Female Sprague-Dawley rats are fasted twenty-four hours before testing and are given water ad libidum while being kept in individual cages. On the day of testing, the rats are weighed within a range of ±20 grams.
Surgery is carried out under light ether anesthesia. As soon as the rat is anesthetized its teeth are removed and a mid-line incision is made on the abdomen about 11/2 inches in length and the stomach and duodenum are exposed. If at this point the stomach is filled with food or fecal material, the rat is discarded. If the condition of the stomach is acceptable, a purse string stitch is placed on the fundic portion of the stomach with a suture, taking care not to pierce any blood vessels in the area. A small nick is then made into the stomach in the center of the purse string, and a cannula, consisting of a small vinyl tube with a flange on one end, is put into the stomach, and the purse string stitch is closed tightly around the flange. The test compound is administered either intraduodonally (i.d.) immediately after surgery or orally (p.o.) one hour prior to surgery at doses generally ranging from about 0.25 to about 160 mg/kg in a volume of 0.5 ml/100 grams rat. Control rats receive the test vehicle, 0.5% aqueous hydroxypropyl methyl cellulose.
After surgery and, in the case of i.d. administration, after administration of the test compound, the abdominal wall and skin are closed simultaneously with three or four 18 mm wound clips and a collecting tube is placed on the cannula. Each rat is then placed in a box in which a longitudinal slit has been made to allow the cannula to hang freely and to allow the rat to move about unencumbered. After the rat has been allowed to stabilize for thirty minutes, the collection tube on the cannula is discarded and replaced with a clean tube to receive the gastric juice. Collections are made one hour after stabilization.
The sample of gastric contents collected is drained into a centrifuge tube and centrifuged to pack down the sediment. The volume is read and a 1 ml aliquot of the supernatant is put into a beaker containing 20 ml of distilled water and is titrated to pH 7 using 0.01N sodium hydroxide. Results are determined for Volume, Titratable Acid and Total Acid Output, where Volume equals total ml of gastric juice minus sediment; Titratable Acid (meq/1) equals amount of 0.01N sodium hydroxide needed to titrate the acid to pH 7; and Total Acid Output equals Titratable Acid times Volume. Results are reported as the ED50 dose (mg/kg required to produce an average of 50% inhibition in Total Acid Output versus controls in the animals tested for a particular compound) and as percent inhibition.
`C(=NCCc1c[nH]c2ccccc12)N1CCC(C(c2ccccc2)c2ccccc2)CC1` [Example 2, N-(4-Diphenylmethyl-1-piperidinyl)-methylene-3-1H-indoleethaneamine monohydroiodide] was tested, and the ED50 was 4.34 mg/kg.

Same assay, conditions: po, one hour prior to surgery, 1 h collection after 30 min stabilization, read-out: ED50 Acute Gastric Fistula (dose required to produce an average of 50% inhibition in Total Acid Output versus controls)
In the case of `C(=NCCc1ccncc1)N1CCC(C(c2ccccc2)c2ccccc2)CC1` [Example 6, 4-Diphenylmethyl-1-[[2-(4-pyridinyl)ethyl]iminomethyl]piperidine 2-naphthalenesulfonate hydrate (4:4:3)], the ED50 is reported as 18.8 mg/kg. For `C(=NCc1ccco1)N1CCC(C(c2ccccc2)c2ccccc2)CC1` [Example 1, 4-(Diphenylmethyl)-1-[(2-furanylmethyl)iminomethyl]piperidine (E)-2-butenedioate (1:1) hydrate (5:2)], the ED50 was 6.91 mg/kg. For `C(=NCc1cccs1)N1CCC(C(c2ccccc2)c2ccccc2)CC1` [Example 4, 4-(Diphenylmethyl)-1-[(2-thiophenemethyl)imino]methylpiperidine (E)-2-butenedioate (1:1) hydrate (2:1)], the ED50 was 6.59 mg/kg. For `Cn1cccc1CCN=CN1CCC(C(c2ccccc2)c2ccccc2)CC1.O=C(O)/C=C/C(=O)O` [Example 3, 4-Diphenylmethyl-1-[N-[(1-methyl-1H-pyrrol-2-yl)ethyl]-iminomethyl]piperidine (E)-2-butenedioate], the ED50 was 3.61 mg/kg. `C(=NCCc1ccccn1)N1CCC(C(c2ccccc2)c2ccccc2)CC1` [Example 5, 4-(Diphenylmethyl-1[[2-(2-pyridinyl)ethyl]iminomethyl]piperidine (E)-2-butenedioate (1:1)] showed an ED50 of 3.47 mg/kg.
